For one assay, the target named is Bcl-xL (Homo sapiens, UniProt Q07817). The assay is described as follows: Bcl-xL binding affinity analysis (fluorescence polarization binding assay). The arrangement: scale not given here. The essentials:
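In vitro fluorescence polarization binding assay measuring compound binding to human Bcl-xL.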

A further assay concerns the target Bcl-2 (Homo sapiens, UniProt P10415). The assay is described as follows: Bcl-2 binding affinity analysis (fluorescence polarization binding assay). An outline of the steps:
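Binding to human Bcl-2 quantified in vitro by a fluorescence polarization assay.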
(Polarisation of emitted light reports the rotation of a fluorescent probe.)

Chain of Bcl-2 (P10415 whole entry): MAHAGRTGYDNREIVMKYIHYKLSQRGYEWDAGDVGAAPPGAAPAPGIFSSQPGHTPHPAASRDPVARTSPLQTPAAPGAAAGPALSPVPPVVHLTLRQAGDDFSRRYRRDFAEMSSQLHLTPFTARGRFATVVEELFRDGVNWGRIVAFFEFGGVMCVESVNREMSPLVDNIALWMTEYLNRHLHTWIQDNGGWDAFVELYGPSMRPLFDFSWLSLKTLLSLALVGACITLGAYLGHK
Chain of Bcl-xL (Q07817 whole entry): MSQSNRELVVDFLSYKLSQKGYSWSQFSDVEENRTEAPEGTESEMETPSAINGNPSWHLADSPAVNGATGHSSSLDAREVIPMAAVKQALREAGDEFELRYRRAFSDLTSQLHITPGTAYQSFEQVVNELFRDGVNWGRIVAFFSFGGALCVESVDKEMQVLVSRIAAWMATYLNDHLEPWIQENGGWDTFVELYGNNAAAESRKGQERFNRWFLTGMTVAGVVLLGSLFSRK

The Ki is a dissociation constant, usually derived from enzyme kinetics or from competition with a known ligand. As for `CC(C)[C@@H](CN(C)C)NC(=O)c1cccc(-c2cccc(CN3O[C@@H](CO)[C@@H]([C@H](C)O)[C@H]3C(=O)N[C@H]3C[C@H]4C[C@@H]([C@@H]3C)C4(C)C)c2)c1` [Compound 100], the “Bcl-XL binding affinity Ki” value on Bcl-xL is reported as “♯”. Further, the Ki on Bcl-2 is less than 800 nM.
For `C[C@@H]1[C@@H](NC(=O)[C@@H]2[C@H]([C@H](C)O)[C@H](CO)ON2Cc2cccc(-c3cccc(C(=O)NCCCCN(C)C)c3)c2)C[C@H]2C[C@@H]1C2(C)C` [Compound 113], the “Bcl-XL binding affinity Ki” value at Bcl-xL is “♯”. At Bcl-2, this compound came in with a Ki of less than 800 nM.
For `C[C@@H]1[C@@H](NC(=O)[C@@H]2[C@H]([C@H](C)O)[C@H](CO)ON2Cc2cccc(-c3cccc(C(=O)NCC4CC4)c3)c2)C[C@H]2C[C@@H]1C2(C)C` [Compound 145] the same measures were “♯♯” and less than 800 nM.
In the same order, the values of `C[C@@H]1[C@@H](NC(=O)[C@@H]2[C@H]([C@H](C)O)[C@H](CO)ON2Cc2cccc(-c3cccc(C(=O)NCCN4CCN(C)CC4)c3)c2)C[C@H]2C[C@@H]1C2(C)C` [Compound 116] are “♯” and less than 800 nM.
For `C[C@@H]1[C@@H](NC(=O)[C@@H]2[C@H]([C@H](C)O)[C@H](CO)ON2Cc2cccc(-c3cccc(C(=O)N4CC[C@@H](N(C)C)C4)c3)c2)C[C@H]2C[C@@H]1C2(C)C` [Compound 152] the same measures were “♯♯” and less than 800 nM.
On to `C[C@H](O)[C@@H]1[C@H](CO)ON(Cc2cccc(C#CC3(N)CCCCC3)c2)[C@@H]1C(=O)NCCCN(C)c1ccccc1` [Compound 28], for which the “Bcl-XL binding affinity Ki” value on Bcl-xL was “♯”. Also, on Bcl-2, the Ki was in the range of 6000 to 50000 nM.
For the compound `C[C@@H](O)[C@H]1[C@@H](CO)ON(Cc2cccc(C#CC(C)(O)c3ccccc3)c2)[C@H]1C(=O)NCCCN(C)c1ccccc1` (some centres unmarked) [Compound 49], at Bcl-xL, the “Bcl-XL binding affinity Ki” value is “♯”. The compound also showed a Ki at Bcl-2 of 800 to 6000 nM.
Regarding `C[C@H](O)[C@@H]1[C@H](CO)ON(Cc2cccc(CN(CCN(C)C)Cc3ccccc3)c2)[C@@H]1C(=O)NCC(c1ccccc1)c1ccccc1` [Compound 520], the “Bcl-XL binding affinity Ki” value at Bcl-xL is on record as “♯”. The compound also had a Ki at Bcl-2 of 800 to 6000 nM.
For `CC(C)C[C@@H](CN(C)C)N(Cc1ccccc1)Cc1cccc(CN2O[C@@H](CO)[C@@H]([C@H](C)O)[C@H]2C(=O)NCc2cccc3ccccc23)c1` [Compound 532] the same measures were “♯” and 800 to 6000 nM.
In the same order, the values of `C[C@@H](O)[C@H]1[C@@H](CO)ON(Cc2cccc(C#CCCCCl)c2)[C@H]1C(=O)NCCCN(C)c1ccccc1` [Compound 44] are “♯” and 6000 to 50000 nM.
For `CC(C)C[C@@H](CN(C)C)N(Cc1ccccc1)Cc1cccc(CN2O[C@@H](CO)[C@@H]([C@H](C)O)[C@H]2C(=O)NCCCN(C)c2ccccc2)c1` [Compound 531] the same measures were “♯” and 800 to 6000 nM.
Take `Cc1cccc(CN(Cc2cccc(CN3OC(CO)C(C(C)O)C3C(=O)NC3CC4CC(C3C)C4(C)C)c2)C(CC(C)C)CN(C)C)c1O` (centres unmarked) [Compound 337]: the “Bcl-XL binding affinity Ki” value on Bcl-xL is recorded as “♯”. On Bcl-2, the Ki was less than 800 nM.
For `C[C@@H]1[C@@H](NC(=O)[C@@H]2[C@H]([C@H](C)O)[C@H](CO)ON2Cc2cccc(-c3cccc(C(=O)NCCCN(C)C)c3)c2)C[C@H]2C[C@@H]1C2(C)C` [Compound 216] the same measures were “♯” and less than 800 nM.
For `CC(C)CC(CN(C)C)N(Cc1cccc(CN2OC(CO)C(C(C)O)C2C(=O)NC2CC3CC(C2C)C3(C)C)c1)CC1CCCC1` (centres unmarked) [Compound 308] the same measures were “♯” and less than 800 nM.
For `C[C@@H]1[C@@H](NC(=O)[C@@H]2[C@H]([C@H](C)O)[C@H](CO)ON2Cc2cccc(-c3ccc(C(N)=O)cc3)c2)C[C@H]2C[C@@H]1C2(C)C` [Compound 134] the same measures were “♯” and less than 800 nM.
In the case of `COc1ccc(OC)c(CN(Cc2cccc(CN3OC(CO)C(C(C)O)C3C(=O)NC3CC4CC(C3C)C4(C)C)c2)C(CC(C)C)CN(C)C)c1` (centres unmarked) [Compound 333], the “Bcl-XL binding affinity Ki” value at Bcl-xL was “♯”. At Bcl-2, this compound showed a Ki of less than 800 nM.
For `CSc1ccccc1CN(Cc1cccc(CN2OC(CO)C(C(C)O)C2C(=O)NC2CC3CC(C2C)C3(C)C)c1)C(CC(C)C)CN(C)C` (centres unmarked) [Compound 330] the same measures were “♯” and less than 800 nM.
Consider `C[C@@H]1[C@@H](NC(=O)[C@@H]2[C@H]([C@H](C)O)[C@H](CO)ON2CCCCN(CCN(C)C)Cc2ccccc2-c2ccccc2)C[C@H]2C[C@@H]1C2(C)C` [Compound 551], for which the “Bcl-XL binding affinity Ki” value at Bcl-xL is listed as “♯”. In addition, the Ki on Bcl-2 was less than 800 nM.
In the same order, the values of `C[C@H](O)[C@@H]1[C@H](CO)ON(Cc2cccc(CN(CCN(C)C)Cc3ccccc3)c2)[C@@H]1C(=O)NCCCCc1ccccc1` [Compound 519] are “♯” and 800 to 6000 nM.
For `CC(C)CC(CN(C)C)N(Cc1cccc(CN2OC(CO)C(C(C)O)C2C(=O)NC2CC3CC(C2C)C3(C)C)c1)Cc1cccc2c1OCO2` (centres unmarked) [Compound 302] the same measures were “♯” and less than 800 nM.
In the same order, the values of `C[C@@H]1[C@@H](NC(=O)[C@@H]2[C@H]([C@H](C)O)[C@H](CO)ON2Cc2cccc(-c3cccc(C(=O)N4CCCN(C)CC4)c3)c2)C[C@H]2C[C@@H]1C2(C)C` [Compound 125] are “♯♯” and less than 800 nM.
With `CC(O)C1C(CO)ON(Cc2cccc(CNC(CCc3ccccc3)CN(C)C)c2)C1C(=O)NC1CC2CC(C1C)C2(C)C` (centres unmarked) [Compound 445], the “Bcl-XL binding affinity Ki” value on Bcl-xL was “♯”. On Bcl-2, this compound came in with a Ki of less than 800 nM.
For `CC(=O)Nc1cccc(-c2cccc(CN3O[C@@H](CO)[C@@H]([C@H](C)O)[C@H]3C(=O)NC3C[C@H]4C[C@@H]([C@@H]3C)C4(C)C)c2)c1` (some centres unmarked) [Compound 183], the “Bcl-XL binding affinity Ki” value on Bcl-xL is given as “♯♯”. Besides, on Bcl-2, the Ki was less than 800 nM.
In the same order, the values of `CC(=O)NCCNC(=O)c1cccc(-c2cccc(CN3O[C@@H](CO)[C@@H]([C@H](C)O)[C@H]3C(=O)N[C@H]3C[C@H]4C[C@@H]([C@@H]3C)C4(C)C)c2)c1` [Compound 146] are “♯” and less than 800 nM.
For `CCOc1cccc(CN(Cc2cccc(CN3O[C@@H](CO)C([C@H](C)O)[C@H]3C(=O)N[C@H]3C[C@H]4C[C@@H]([C@@H]3C)C4(C)C)c2)[C@@H](CC(C)C)CN(C)C)c1O` (some centres unmarked) [Compound 334] the same measures were “♯” and less than 800 nM.
For `CC(C)C[C@@H](CN(C)C)N(Cc1ccccc1)Cc1cccc(CN2O[C@@H](CO)[C@@H]([C@H](C)O)[C@H]2C(=O)NCc2ccc(Oc3ccccc3)cc2)c1` [Compound 530] the same measures were “♯” and 800 to 6000 nM.
In the case of `COCCOc1cccc(CN(CCN(C)C)Cc2cccc(CN3OC(CO)C(C(C)O)C3C(=O)NC3CC4CC(C3C)C4(C)C)c2)c1` (centres unmarked) [Compound 406], the “Bcl-XL binding affinity Ki” value on Bcl-xL was “♯”. This compound also yielded a Ki on Bcl-2 of less than 800 nM.
Turning to `CC(C)CC(CN(C)C)N(Cc1cccc(CN2OC(CO)C(C(C)O)C2C(=O)NC2CC3CC(C2C)C3(C)C)c1)Cc1cccc(C(C)(C)C)c1O` (centres unmarked) [Compound 338], the “Bcl-XL binding affinity Ki” value at Bcl-xL is “♯”. In addition, on Bcl-2, the Ki is less than 800 nM.
